Data set [1] in a line: Antioxidant activity assessed as DPPH scavenging activity at 20 to 100 ug/ml after 4 hrs in presence of lysine by spectrophotometric method. Type of data set: physicochemical. (The DPPH test is a chemical assay of radical scavenging.)
The nature of data set [2]: Antioxidant activity assessed as DPPH scavenging activity at 20 to 100 ug/ml and 120 degC after 4 hrs by spectrophotometric method. Type of data set: physicochemical.
Data set [3] is described as follows: Drug metabolism assessed as increase in total phenolics at 120 degC after 4 hrs in presence of lysine by Folin-Ciocalteu method. Type of data set: physicochemical.
In data set [4] the test system is HepG2. Nature of the data set: Antioxidant activity in human HepG2 cells assessed as reduction in Cu2+ induced oxidative stress at 50 to 200 ug/ml preincubated for 30 mins at 120 degC using DCFH-DA in presence of lysine by fluorescence assay. Type of data set: functional, cell-based.
Data set [5] can be described thus: Metal chelating activity assessed as Cu2+ reducing activity at 120 degC after 4 hrs in presence of lysine. Type of data set: physicochemical.
Data set [6] is described as follows: Antioxidant activity assessed as DPPH scavenging activity at 60 ug/ml and 120 degC after 4 hrs by spectrophotometric method. Type of data set: physicochemical.
The nature of data set [7]: Retention time of compound by HPLC method. Type of data set: physicochemical.
In data set [8] the test system is HepG2. Nature of the data set: Antioxidant activity in human HepG2 cells assessed as reduction in Cu2+ induced oxidative stress at 50 to 200 ug/ml preincubated for 30 mins using DCFH-DA by fluorescence assay. Type of data set: functional, cell-based.
Data set [9] relates to HepG2. Nature of the data set: Antioxidant activity in human HepG2 cells assessed as increase in Cu/Zn SOD activity at 200 ug/ml at 120 degC after 4 hrs relative to control. Type of data set: functional, cell-based.
Data set [10] deals with HepG2. Nature of the data set: Induction of Cu/Zn SOD gene expression in human HepG2 cells at 100 to 300 ug/ml at 120 degC after 4 hrs in presence of lysine by western blot analysis. Type of data set: functional, cell-based. Background: In western blotting, separated proteins are transferred to a membrane and probed.
The subject of data set [11] is HepG2. Nature of the data set: Antioxidant activity in human HepG2 cells assessed as reduction in Cu2+ induced oxidative stress at 50 to 200 ug/ml preincubated for 30 mins in presence of lysine using DCFH-DA by fluorescence assay. Type of data set: functional, cell-based.
Data set [12] in a line: Antioxidant activity assessed as DPPH scavenging activity at 60 to 100 ug/ml and 120 degC after 4 hrs in presence of lysine by spectrophotometric method. Type of data set: physicochemical.
Data set [13] deals with HepG2. Nature of the data set: Antioxidant activity in human HepG2 cells assessed as increase in Cu/Zn SOD activity at 200 ug/ml in presence of lysine at 120 degC after 4 hrs relative to control. Type of data set: functional, cell-based.

The structures appear in SMILES notation. Active and inactive are the calls of the source. The rule behind the calls is not given here.

Consider `C[C@@H]1O[C@@H](N[C@@H](CCCCN)C(=O)O)[C@H](O)[C@H](O)[C@H]1O`, for which the result in data set [1], in [2] and in data set [5] was Active. Further, the Drug metabolism result in [3] is on record as “metabolite_detected”. In data set [4], the result was Active.
For `NCCCC[C@H](N[C@@H]1O[C@H](CO)[C@@H](O)[C@H](O)[C@H]1O)C(=O)O`, the outcome in data set [1], in [2] and in data set [5] was Active. Moreover, the Drug metabolism entry in [3] was “metabolite_detected”. In addition, the result in [4] was Active.
With `O=C1O[C@H]([C@@H](O)CO)C(O)=C1O` [ASCORBIC ACID], the Activity in [6] is listed as 90.6%.
Regarding `NCCCC[C@H](N)C(=O)O` [LYSINE], in [7], the Retention_time is listed as 2.01 min.
On to `C[C@@H]1O[C@@H](OC[C@H]2O[C@@H](Oc3c(-c4ccc(O)c(O)c4)oc4cc(O)cc(O)c4c3=O)[C@H](O)[C@@H](O)[C@@H]2O)[C@H](O)[C@H](O)[C@H]1O` [RUTIN], for which, in data set [7], the Retention_time came to 8.94 min. For the same compound, the results for the Activity entry in data set [1], in [12] and in data set [5] were “Dose-dependent effect”, “Active” and “Active”, respectively. Moreover, the Drug metabolism entry in [3] is “metabolite_detected”. Also, the inhibition result in [8] and in [11] was “inactive” in each case. Further, the result in data set [4], in [9], in [10] and in data set [13] was Active.

These data come from ChEMBL document CHEMBL3808329, “Increase of rutin antioxidant activity by generating Maillard reaction products with lysine” (Bioorg Med Chem Lett, 2016).
